# Measurements reported in US8309522B2, “Neuromedin and FN-38 peptides for treating psychiatric diseases” (Amylin Pharmaceuticals, LLC, priority 2007, dated 2012).
# Ends that are not written are not given here.
# Tests used:
# mice [1] = experiment: Stress-induced hyperthermia (SIH) assay; type: in vivo; details: 60 minutes before the assay, FIG. 1
# Description: (§1) Animal behavior assays were performed to test for anxiolytic and antipsychotic effects of FN-38 (SEQ ID NO:5) administration. […] These specific behavioral tests are known to be sensitive to anxiolytic or antipsychotic drugs. For these assays, FN-38 was administered to mice at doses ranging from 0.1 to 10 mg/kg, intraperitoneally, and their performance in the assay was assessed.
# Body temperature and emotionality are correlated in humans and stress commonly induces an increase in body temperature (hyperthermic response) in rodents. The thermic response to stress is commonly used as an indication of enhanced emotionality or anxiety in rodents and stress-induced hyperthermia (SIH) in mice is considered to have predictive validity for certain human anxiety/stress disorders. The SIH assay assesses the effect of anxiolytics or test agents on SIH and measures the intrinsic effects of these drugs on core body temperature of the animal. See, for example, Zethof et al., 1994, Physiol. Behav. 55:109-115. Anxiolytics blunt the increase in body temperature, or hyperthermic response, following stress exposure. Buspirone is a partial 5-HT1A agonist and a known anxiolytic agent. […] The stress from the first measurement induces hyperthermia which was measured by the second temperature measurement. […]
# mice [2] = experiment: Prepulse inhibition (PPI) test; type: in vivo; details: 78 and 82 dB prepulse, FIG. 4
# Description: as §1
# The prepulse inhibition (PPI) test measures the reflex response to externally applied auditory stimulation (acoustic startle response) and is related to the deficiency in sensory-motor gating capacity seen in schizophrenia. The acoustic startle reflex is a very basic response to strong exteroceptive stimuli and is widely used to assess sensorimotor reactivity in animals and humans. A weak auditory stimulus (prepulse, 74-82 dB) given prior to the strong acoustic stimulus (120 dB) blunts the startle response. This blunting of the startle response is referred to as prepulse inhibition. See, for example, Conti et al., 2005, Behavioral Neuroscience 119:1052-1060. […]
# Mice were injected with the test agent (FN-38 (SEQ ID NO:5) at 0.1, 1.0 or 10 mg/kg, or vehicle (water)) […] to the test or with haloperidol at 1 mg/kg or vehicle (10% DMSO) 30 minutes prior to the test. […] The amount of the animal's “reaction” to the strong stimulus was recorded. […]
# mice [3] = experiment: Phencyclidine (PCP)-induced locomotion test; type: in vivo; details: FN-38 10 mg/kg, 15-30 minutes prior to 5 mg/kg PCP; activity recorded for 60 minutes; FIG. 3
# Description: as §1
# The PCP-induced locomotion test is used with open field activity chambers and measures locomotion, rearing, and stereotypic activity under amphetamine/PCP-induced conditions. The test has predictive validity for some antipsychotic drugs that normalize the hyperactivity and stereotypic behavior seen with amphetamine and PCP. See, for example, Williams et al., 2006, Prog. Neuropsychopharmacol. Biol. Psychiatry, 30:239-243. Mice were injected with the test agent (FN-38 (SEQ ID NO:5) at 0.1, 1.0 or 10 mg/kg, or vehicle (water)) 15-30 minutes prior injection with 5 mg/kg PCP. The animals were then placed in the center of an open field and activity was recorded for 60 minutes.
# mice [4] = experiment: Marble burying; type: in vivo; details: FN-38 10 mg/kg intraperitoneally, 15-30 minutes prior to the test; statistically significant; FIG. 2
# Description: as §1
# Marble burying is used as a model for both anxiety and obsessive-compulsive disorder. See, for example, Chaki et al., 2003, J. Pharmacol. Exp. Ther. 304:818-826. Anxiolytics suppress marble burying activity. Benzodiazepine chlordiazepoxide (CDP) is a known anxiolytic agent. Mice were injected with the test agent (FN-38 (SEQ ID NO:5) at 0.1, 1.0 or 10 mg/kg, 15 mg/kg CDP, or vehicle (water)) 15-30 minutes prior to the test. Mice were then placed individually in clean cages containing 5-cm of hard wood bedding and 20 marbles spaced evenly in rows of five. The number of marbles buried in 30 minutes was recorded. Results of this assay are shown in FIG. 2 where * is P<0.05 vs. vehicle control. […] These reductions in marble burying were statistically significant.
# rats = details: central administration to rats; cited from earlier work
compound,measurement,setting,value
"O=C1CC2(CCCC2)CC(=O)N1CCCCN1CCN(c2ncccn2)CC1 [buspirone, reference compound]",stress-induced hyperthermia (Delta Temperature),"mice [1]; 15 mg/kg buspirone, positive control",blunted the SIH response
"O=C(CCCN1CCC(O)(c2ccc(Cl)cc2)CC1)c1ccc(F)cc1 [halperidol, haloperidol, reference compound]",percent of prepulse inhibition,"mice [2]; haloperidol at 1 mg/kg, 30 minutes prior to the test, positive control",increased the percent of prepulse inhibition
FLFHYSKTQKLGKSNVVEELQSPFASQSRGYFLFRPRN (FLFHYSKTQKLGKSNVVEELQSPFASQSRGYFLFRPRN-NH2; listed as Homo sapiens) [FN-38],"PCP-induced hyper-locomotion (total distance traveled: total, central, and peripheral)",mice [3],significantly reduced this hyper-locomotion response
same,stress-induced hyperthermia (Delta Temperature),"mice [1]; FN-38 10 mg/kg intraperitoneally, P<0.05 vs. vehicle control",blunted the SIH response
same,percent of prepulse inhibition,"mice [2]; FN-38 10 mg/kg, 120 dB stimulus",increased the percent of prepulse inhibition
same,number of marbles buried in 30 minutes,mice [4],reduced the number of marbles buried
"neuromedin U (YKVNEYQGPVAPSGGFFLFRPRN-NH2; UniProt P12760 144-166, looked up) [NMU, neuromedin U, centrally administered to rats in cited literature]",food intake,rats,inhibited food intake
